Test results from US20060276416A1, “Methods and compositions for treating flushing and drug induced weight gain” (Sirtris Pharmaceuticals, Inc., priority 2005, published 2006).
“Also recorded” adds a separate entry of the source.

Columns and labels:
phosphorylation of ACC = assay: ACC phosphorylation Western in 3T3-L1 adipocytes; format: cell-based; details: day 6 and day 10 of differentiation
Protocol: ACC was also phosphorylated when the cells were incubated in serum free media overnight before harvesting (lanes marked “SF”). The reason for the extra band in the SIRT1 blot at day 6 is unknown, but it may be a modified form of SIRT1. Tubulin served as a loading control.

lysine 382 of p53 = assay: p53 K382 acetylation Western blot in UV-irradiated U2OS cells; format: cell-based, human
Protocol: FdL (200 μM) is added to growth media and cells incubated for 1-3 hours to allow FdL to enter the cells and the lysine-deacetylated product (deAc-FdL) to accumulate intracellularly. Cells are lysed with detergent in the presence of 1 μM TSA, 1 mM nicotinamide. […] Cells were grown adherently in DMEM/10% FCS and treated for 1 hour with 200 μM FdL, 1 μM TSA and either vehicle (0.5% final DMSO, Control) or 500 μM of the indicated compound. Intracellular accumulation of deAc-FdL was then determined as described briefly in a. […] Lysates were prepared and analyzed as above.
Whole cell extracts were prepared by lysing cells in buffer containing 150 mM NaCl, 1 mM MgCl2, 10% glycerol, 1% NP40, 1 mM DTT and anti-protease cocktail (Roche).

C. elegans = C. elegans lifespan assay; format: in vivo
Protocol: Thus, the presence of resveratrol in the growth media of C. elegans extends their lifespan.
Bristol N2 (Caenorhabditis Genetics Center) was used as the wild-type strain. The sir-2.1 mutant strain was generated by backcrossing VC 199 (sir-2.1 (ok434)) to N2 four times. Cultures were grown on standard NGM media and maintained on E. coli strain OP50. For the lifespan assays, synchronized animals were transferred to treatment plates as young adults (2 d after hatching, day 0 of assay), and were transferred to fresh treatment plates every 2 days for the first 6 to 8 days of the assay. […] For some lifespan trials, heat-killed OP50 were used as a food source. OP50 cultures were heated to 65° C. for 30 minutes, then pelleted and resuspended in 1/10 volume in S Basal supplemented with 10 mM MgSO4. In all assays, worms were monitored daily for mortality by gently probing with a platinum pick. Assays were performed at 24° C. To assay worm feeding rates, worms at the indicated stages were placed on treatment plates (no FUdR) for 4-5 hours, then videoed for 1 minute using a Pixelink PL-662 camera. The frame rate was slowed and the pumping rate of the pharynx was counted. To assay fecundity, gravid hermaphrodites (5 per plate, raised from synchronized L1s on normal or treatment plates) were allowed to lay eggs on their respective media for 5 hours, and the total number of eggs was counted.

3T3-L1 cells = assay: Adipocyte differentiation and fat content, Oil Red O; format: cell-based
Protocol: (§1) After 10 days of differentiation, cells were fixed and stained with Oil red O. Oil red 0 was extracted from stained cells and quantified by measuring absorbance at 520 nm. B. Oil red 0 quantitation is shown as fold change relative to the 3T3-L1 sample treated with 0 μM resvratrol.
(§2) After 10 days of differentiation, fat content was assessed by Oil Red O staining, as described below. […] The results in NIH3T3 cells confirm the results obtained in C. elegans.
(§3) 3T3-L1 and NIH3T3 cells were maintained in DMEM plus 10% calf serum. Adipocyte differentiation of 3T3-L1 cells was performed as described previously (MacDougald, O. A. and Lane, M. D. (1995). Transcriptional regulation of gene expression during adipocyte differentiation. Annu. Rev. Biochem. 64, 345-373). NIH3T3 cells were induced to form adipocytes under the same conditions as 3T3-L1 cells, but with 6 days of treatment with insulin, dexamethasone, and isobutylmethylxanthine in 10% fetal calf serum after cells reach confluence. The staining of adipocytes with Oil Red-O and quantitation was performed as described previously (Ramirez-Zacarias J L, Castro-Munozledo F, Kuri-Harcuch W. Histochemistry. 1992 97(6): 493-7).

NIH3T3 cells = assay: as above; format: cell-based; details: 10 days of differentiation
Protocol: as §1, §2, §3

[1] = system: ribosomal DNA recombination; assay: Ribosomal DNA recombination assay (loss of ADE2 marker); format: cell-based, S. cerevisiae
recombinant SIR-2.1 = recombinant SIR-2.1 (Caenorhabditis elegans, UniProt Q21921); assay: SIR-2.1 deacetylation assay (Fluor de Lys); format: biochemical, C. elegans
recombinant SIR-2.1, sequence (Q21921 whole entry): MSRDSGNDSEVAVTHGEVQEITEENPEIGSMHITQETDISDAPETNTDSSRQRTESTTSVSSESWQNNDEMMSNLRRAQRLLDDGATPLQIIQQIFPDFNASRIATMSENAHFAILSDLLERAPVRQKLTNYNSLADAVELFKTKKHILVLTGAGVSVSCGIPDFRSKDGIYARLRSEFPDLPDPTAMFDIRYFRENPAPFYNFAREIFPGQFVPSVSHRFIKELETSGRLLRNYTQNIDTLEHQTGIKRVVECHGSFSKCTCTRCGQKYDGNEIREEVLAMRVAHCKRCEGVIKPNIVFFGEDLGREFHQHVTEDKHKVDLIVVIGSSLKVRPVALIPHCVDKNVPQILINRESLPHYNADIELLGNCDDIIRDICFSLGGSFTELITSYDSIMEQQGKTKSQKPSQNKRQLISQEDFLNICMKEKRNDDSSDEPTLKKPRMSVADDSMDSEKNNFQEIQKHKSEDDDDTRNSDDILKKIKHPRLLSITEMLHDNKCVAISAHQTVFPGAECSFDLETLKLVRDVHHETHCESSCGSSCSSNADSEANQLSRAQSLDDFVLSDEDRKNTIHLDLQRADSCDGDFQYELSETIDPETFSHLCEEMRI
Protocol: From 0.1 to 1 μg of SIR-2.1 and 1 μg of dSir2 were used per deacetylation assay as previously described with modifications (SIR-2.1: 200 μM NAD^+, 10 μM Fluor de Lys, FdL; dSir2: 25 μM NAD^+, 10 μM FdL)^26. STACs were dissolved at 10 mM in dimethylsulfoxide (DMSO) the day of the assay. In vitro fluorescence assay results were read in 96-well microplates (Corning Costar 3693) with a Wallac Victor Multilabel counter (Perkin Elmer, excitation at 360 nm, emission at 450 nm). Drosophila S2 cells were grown in Schneider media with fetal calf serum at 23-28° C., seeded at 9×10^4 cells/well, grown overnight and then exposed to 1 μM TSA, 500 μM polyphenols, and 200 μM FdL for 2 hr. Deacetylation of FdL with lysate from whole cells was determined as described^4. Unless otherwise indicated all initial rate measurements were means of three or more replicates obtained with single incubation times, at which point 5% or less of the substrate initially present was deacetylated.

## Oc1ccc(/C=C/c2cc(O)cc(O)c2)cc1 [Resveratrol, 3,5,4′-Trihydroxy-trans-stilbene]
Phosphorylation of ACC
  Phosphorylation of ACC: stimulated the phosphorylation of ACC
Lysine 382 of p53; 0.5 μM resveratrol, 4 hours pre-treatment, UV radiation
  Level of Ac-K382: marked decrease
Lysine 382 of p53; higher concentrations of resveratrol (>50 μM)
  Level of Ac-K382: reversed
C. elegans; sir-2.1 null mutant
  Lifespan extension (in words): did not exhibit a significant lifespan extension
C. elegans; wild-type worms, 100 μM, heat-killed or live E. coli, maximum
  Lifespan extension: up to 15%
3T3-L1 cells; 10 days of differentiation
  Concentrations that decreased the quantity of cellular fat: ≥ 25 µM
3T3-L1 cells; resveratrol-treated cells
  PPARγ expression: did not show an increase; also recorded: marked decrease
NIH3T3 cells
  Concentrations that decreased the quantity of cellular fat: ≥ 25 µM
[1]; in the presence of the Sir2 inhibitor nicotinamide
  Effect on rDNA recombination: decreased
[1]; sir2 strain
  Effect on rDNA recombination: does not suppress
Recombinant SIR-2.1; 100 μM resveratrol, 10 μM Fluor de Lys
  Km of SIR-2.1 for the co-substrate NAD+: lowered
Recombinant SIR-2.1; dose-dependent, maximum
  Stimulation of deacetylation: up to 2.5 fold
